Laboratory results as given in US7504537B2, “Hydroxamic acid derivative and MMP inhibitor containing the same as active ingredient” (Dainippon Sumitomo Pharma Co., Ltd., priority 2001, dated 2009).
pIC50: −log10 of the molar value.

How the values were obtained:
MMP-13 = molecular target: T1, MMP-13 (Homo sapiens, UniProt P45452); assay: Test 2 Test on MMP-13 inhibition activity (fluorogenic peptide substrate); type: biochemical; details: activated MMP-13, 37° C.
T1 construct: a fragment of 767 bp encoding original 84 amino acids of complete MMP-13 and encoding 164 amino acids; made in house; host or cells: E. coli BL21 (DE3), pET11a
Description: Test 2 Test on MMP-13 Inhibition Activity
In order to subcloning C-terminal truncated cDNA in which the cDNA encodes procollagenase-3 (proMMP-13) (J. Biol. Chem., 269(24), 16766-16773 (1994)), two synthesized oligonucleotide primer fragments: • (5′-[…]-3′ and 5′-[…]-3′: In former the sequence for specific NdeI site (under line) including first methionine is included, and in latter terminal codon and BamHI site (under lined) are included.) were used with human cartilage cell cDNA library for PCR. Due to these primers and Pfu DNA polymelase (STRATAGENE) for PCR, there was obtained a fragment of 767 bp encoding original 84 amino acids of complete MMP-13 and encoding 164 amino acids. The said fragment was cut out with digestion by NdeI and BamHI, and the fragment was annealed to NdeI site and BamHI site of pET11a (STRATAGENE). The recombinant plasmid was transformed into E. coli BL21 (DE3) and the bacteria were cultivated. The crude cell extract was prepared according to the method of Biochemistry. The said extract was dialyzed with 20 mM Tris-HCl (pH 7.2)/5 mM CaCl2/0.02% NaN3 solution, treated with SP-sepharose HP column (1.6×10 cm, Amasham-Pharmacia biotec), and the eluting was carried out by liner gradient from 0 to 0.3 m of sodium chloride solution (50 ml) (partially purified proMMP-13 was eluted at about 0.2M.) The eluted fraction was dialyzed with 20 mM Tris-HCl (pH 7.9)/5 mM CaCl2/200 mM (NH4)2SO4/0.02% NaN3 solution, treated with phenylsepharose HP column (1.6×5 cm, Amersham-Pharmacia biotec), and the eluting was carried out by liner gradient from 0.2M to 0M sulfuric acid ammonium solution (purified proMMP-13 was eluted at about 50 mM.). The eluted fraction was concentrated by YM-5 ultrafilter membrane, and activated by 4-aminophenyl mercuric acetate. Activated MMP-13 was treated with gel filtration chromatography in accordance with the method of Biochemistry to be separated from propeptide. Inhibiting Test Method
Enzyme activity test was carried out by the method of G. Knight (FEBS Lett., 296(3), 263-266 (1992)).
A mixture of activated MMP-13 (20 nM, 10 μl), buffer solution (70 μl, pH 7.5 solution containing 100 mM Tris-HCl solution, 10 mM calcium chloride solution, 100 mM sodium chloride solution and 0.05% Briji-35 solution), MOCAc-Pro-Leu-Gly-Leu-A2pr(DNP)-Ala-Arg-NH2 in 0.1% DMSO solution (100 μM, 10 μl) and a test compound in DMSO solution was incubated for 1.5 hours at 37° C. The mixture was put on a 96 well-plate (100 μl/wel), and the plate was incubated at 37° C. The enzyme activity in the presence of the compound was measured based on fluorescence intensity (λex 320 nm, λem 405 nm), and IC50 was calculated.

MMP-2 = molecular target: T2, MMP-2 (Homo sapiens, UniProt P08253); assay: Test 3 MMP-2 inhibition activity test (gelatinase activity assay kit); type: biochemical; details: activated human MMP-2, biotin labeled gelatin
T2 construct: purchased Boeringer Manheim (Roche Diagnostics)
T2 sequence (P08253 110-660): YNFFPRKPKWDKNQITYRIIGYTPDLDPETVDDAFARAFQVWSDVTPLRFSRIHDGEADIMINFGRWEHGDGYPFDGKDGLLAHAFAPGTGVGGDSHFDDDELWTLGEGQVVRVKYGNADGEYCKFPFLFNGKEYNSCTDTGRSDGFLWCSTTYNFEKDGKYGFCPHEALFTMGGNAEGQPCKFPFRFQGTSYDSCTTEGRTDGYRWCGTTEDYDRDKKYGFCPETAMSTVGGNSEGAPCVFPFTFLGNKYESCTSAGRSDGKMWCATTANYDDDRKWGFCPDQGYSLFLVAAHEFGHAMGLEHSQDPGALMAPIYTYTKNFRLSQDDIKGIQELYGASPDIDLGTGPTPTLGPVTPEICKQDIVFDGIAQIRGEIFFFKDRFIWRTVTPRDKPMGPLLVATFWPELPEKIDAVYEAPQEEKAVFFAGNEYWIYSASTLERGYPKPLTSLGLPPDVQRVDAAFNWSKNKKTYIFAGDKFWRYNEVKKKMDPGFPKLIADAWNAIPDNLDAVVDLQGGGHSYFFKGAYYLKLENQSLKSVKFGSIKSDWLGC
Description: TTC buffer solution was attached to a MMP-2 enzyme assay kit, and the solution was made of 50 mM tris, 1 mM calcium chloride solution and 0.05% Triton X-100 solution, and was adjusted to pH 7.5.
Test 3 MMP-2 Inhibition Activity Test
MMP-2 enzyme assay kit (Gelatinase Activity Assay, Roche.Diagonistics) was used.
A mixture of 1.2U human MMP-2 (20 μl, Boeringer Manheim 30U freezed dry product), TTC buffer (980 μl) and 2.5 mM 4-aminophenyl mercuric acetate solution (144 μl) was incubated at 37° C. for 30 minutes and then it was preserved under ice cooling until use.
A mixture of DMSO solution (2 μl) containing a definite concentration of the compound, biotin labeled gelatin (188 μl) and activated MMP-2 solution (10 μl) was put on a 96 well-assay plate (protein nonabsorbance type), well agitated and incubated at 37° C. for 1 hour. This solution was transferred to a Streptavidin-coating plate and agitated at 15° C, to 30° C. for 30 minutes. And then the solution was washed with TTC buffer solution (200 μl) three times. Thereto was added Streptavidin-POD (200 μl) and the mixture was agitated at 15° C. to 25° C. for 60 minutes, followed by washing with TTC buffer (200 μl) three times. Then, ABTS solution (200 μl) was added thereto and after standing at room temperature for 40 minutes, furuorescence intensity was measure at 405 nm and IC50 was calculated.
In case of the above test, a control and a blank were prepared when the well was prepared as mentioned below. DMSO (2 μl) was used as a control instead of a sample solution. In the case of a blank, DMSO (2 μl) instead of the sample solution and the solution (10 μl) prepared in the same manner as preparation of activated MMP-2 solution but without adding 1.2U human MMP-2, instead of activated MMP-2 solution (10 μl), were used.

| SMILES | pIC50 (MMP-13) | pIC50 (MMP-2) |
| --- | --- | --- |
| CC(C)CN(C1(C(=O)NO)CCCC1)S(=O)(=O)c1ccc(Oc2ccc(S(C)(=O)=O)cc2)cc1 [Example 2, N-hydroxy 1-[isobutyl({4-[4-(methylsulfonyl)phenoxy]phenyl}sulfonyl)amino]cyclopentanecarboxamide] | 8.24 | > 7.00 |
| CC(C)OCCN(CC(=O)NO)S(=O)(=O)c1ccc(Oc2ccc(S(C)(=O)=O)cc2)cc1 [Example 3, N^1-hydroxy-N^2-(2-isopropoxyethyl)-N^2-({4-[4-(methylsulfonyl)phenoxy]phenyl}sulfonyl)glycinamide] | 9.30 | < 7.00 |
| CC(C)(C(=O)NO)N(Cc1ccccc1)S(=O)(=O)c1ccc(Oc2ccc(S(C)(=O)=O)cc2)cc1 [Example 10, N′^2′-Benzyl-N′^1′-hydroxy-2-methyl-N′^2′-({4-[4-(methylsulfonyl)phenoxy]phenyl}sulfonyl)alaninamide] | 7.46 | 5.62 |
| CS(=O)(=O)c1ccc(Oc2ccc(S(=O)(=O)N(Cc3ccccc3)C3(C(=O)NO)CCOCC3)cc2)cc1 [Example 12, 4-[Benzyl({4-[4-(methylsulfonyl)phenoxy]phenyl}sulfonyl)amino]-N-hydroxytetrahydoro-2H-pyrane-4-carboxamide] | 8.40 | > 7.00 |
| CS(=O)(=O)c1ccc(Oc2ccc(S(=O)(=O)NCC(=O)NO)cc2)cc1 [Example 13, N′^1′-Hydroxy-N′^2′-({4-[4-(methylsulfonyl)phenoxy]phenyl}sulfonyl)glycinamide] | 7.97 | 6.05 |
| CC(C)CN(C1(C(=O)NO)CCOCC1)S(=O)(=O)c1ccc(Oc2ccc(S(C)(=O)=O)cc2)cc1 [Example 15, N-Hydroxy-4-[isobutyl({4-[4-(methylsulfonyl)phenoxy]phenyl}sulfonyl)amino]tetrahydro-2H-pyrane-4-carboxamide] | 7.61 | 6.52 |
| CC(C)CN(C1(C(=O)NO)CCC1)S(=O)(=O)c1ccc(Oc2ccc(S(C)(=O)=O)cc2)cc1 [Example 18, N-Hydroxy-1-[isobutyl({4-[4-(methylsulfonyl)phenoxy]phenyl}sulfonyl)amino]cyclobutanecarboxamide] | 8.51 |  |
| CCOC(=O)CN(CC(=O)NO)S(=O)(=O)c1ccc(Oc2ccc(S(C)(=O)=O)cc2)cc1 [Example 22, Ethyl N-{[(hydroxyamino)carbonyl]methyl}-N-({4-[4-(methylsulfonyl)phenoxy]phenyl}sulfonyl)-glycinate] | 8.72 | 5.92 |
| CCOC(=O)CN(C1(C(=O)NO)CCCC1)S(=O)(=O)c1ccc(Oc2ccc(S(C)(=O)=O)cc2)cc1 [Example 23, Ethyl N-{1-[(hydroxyamino)carbonyl]cyclopentyl}-N-({4-[4-(methylsulfonyl)phenoxy]phenyl}sulfonyl)glycinate] | 8.39 | 5.68 |
| CS(=O)(=O)c1ccc(Oc2ccc(S(=O)(=O)N(CC(=O)O)CC(=O)NO)cc2)cc1 [Example 24, N-{[(Hydroxyamino)carbonyl]methyl}-N-({4-[4-(methylsulfonyl)phenoxy]phenyl}sulfonyl)-glycine] | 7.79 | < 5.00 |
| CCOC(=O)CCN(C1(C(=O)NO)CCCC1)S(=O)(=O)c1ccc(Oc2ccc(S(C)(=O)=O)cc2)cc1 [Example 26, Ethyl N-{1-[(hydroxyamino)carbonyl]cyclopentyl}-N-({4-[4-(methylsulfonyl)phenoxy]phenyl}sulfonyl)-β-alaninate] | 8.72 | 6.52 |
| CS(=O)(=O)c1ccc(Oc2ccc(S(=O)(=O)N(CCC(=O)O)C3(C(=O)NO)CCCC3)cc2)cc1 [Example 27, N-{1-[(Hydroxyamino)carbonyl]cyclopentyl}-N-({4-[4-(methylsulfonyl)phenoxy]phenyl}sulfonyl)-β-alanine] | 7.67 | < 5.00 |
| CCOC(=O)CCN(C1(C(=O)NO)CCOCC1)S(=O)(=O)c1ccc(Oc2ccc(S(C)(=O)=O)cc2)cc1 [Example 31, Ethyl N-{4-[(hydroxyamino)carbonyl]tetrahydro-2H-pyran-4-yl}-N-({4-[4-(methylsulfonyl)phenoxy]phenyl}sulfonyl)-β-alaninate] | 7.95 | 6.10 |
| CS(=O)(=O)c1ccc(Oc2ccc(S(=O)(=O)N(CCC(=O)O)CC(=O)NO)cc2)cc1 [Example 36, N-[2-(Hydroxyamino)-2-oxoethyl]-N-({4-[4-(methylsulfonyl)phenoxy]phenyl}sulfonyl)-β-alanine] | 8.42 | 5.54 |
| CS(=O)(=O)c1ccc(Oc2ccc(S(=O)(=O)N(CC(=O)NO)Cc3ccncc3)cc2)cc1 [Example 42, N′^1′-Hydroxy-N′^2′-({4-[4-(methylsulfonyl)phenoxy]phenyl}sulfonyl)-N′^2′-(4-pyridinylmethyl)glycinamide] | 8.40 | > 7.00 |
| COCCCN(CC(=O)NO)S(=O)(=O)c1ccc(Oc2ccc(S(C)(=O)=O)cc2)cc1 [Example 43, N^1-Hydroxy-N^2-(3-methoxypropyl)-N^2-({4-[4-(methylsulfonyl)phenoxy]phenyl}sulfonyl)glycinamide] | > 9.30 | 5.82 |
| COCCN(CC(=O)NO)S(=O)(=O)c1ccc(Oc2ccc(S(C)(=O)=O)cc2)cc1 [Example 44, N^1-Hydroxy-N^2-(2-methoxyethyl)-N^2-({4-[4-(methylsulfonyl)phenoxy]phenyl}sulfonyl)glycinamide] | 9.30 | < 7.00 |
| CCOCCN(C1(C(=O)NO)CCCC1)S(=O)(=O)c1ccc(Oc2ccc(S(C)(=O)=O)cc2)cc1 [Example 45, 1-[(2-Ethoxyethyl)({4-[4-(methylsulfonyl)phenoxy]phenyl}sulfonyl)amino]-N-hydroxycyclopentanecarboxamide] | 9.22 | < 7.00 |
